Columns and labels:
Type in all cases: cell-based
IKZF2 = IKZF2 (Homo sapiens, UniProt Q96SW2+Q9UKS7); test: Prolabel quantification of IKZF2 protein levels in 293GT cells; conditions: for inhibition at 10 µM: 24 h, read-out: IKZF2 % protein reduction at 10 μM, 24 h; for inhibition at 10 µM / DC50: 293GT cells; for DC50: Prolabel assay, read-out: IKZF2 EC50; for IKZF2 protein levels as compared to the control (DMSO): Prolabel assay in HEK293GT cells, bar graph
IKZF1 = IKZF1 (Homo sapiens, UniProt Q13422+Q96SW2); test: Prolabel quantification of IKZF1 protein levels in 293GT cells; conditions: Prolabel assay, read-out: IKZF1 EC50
IKZF1, sequence (Q13422 whole entry): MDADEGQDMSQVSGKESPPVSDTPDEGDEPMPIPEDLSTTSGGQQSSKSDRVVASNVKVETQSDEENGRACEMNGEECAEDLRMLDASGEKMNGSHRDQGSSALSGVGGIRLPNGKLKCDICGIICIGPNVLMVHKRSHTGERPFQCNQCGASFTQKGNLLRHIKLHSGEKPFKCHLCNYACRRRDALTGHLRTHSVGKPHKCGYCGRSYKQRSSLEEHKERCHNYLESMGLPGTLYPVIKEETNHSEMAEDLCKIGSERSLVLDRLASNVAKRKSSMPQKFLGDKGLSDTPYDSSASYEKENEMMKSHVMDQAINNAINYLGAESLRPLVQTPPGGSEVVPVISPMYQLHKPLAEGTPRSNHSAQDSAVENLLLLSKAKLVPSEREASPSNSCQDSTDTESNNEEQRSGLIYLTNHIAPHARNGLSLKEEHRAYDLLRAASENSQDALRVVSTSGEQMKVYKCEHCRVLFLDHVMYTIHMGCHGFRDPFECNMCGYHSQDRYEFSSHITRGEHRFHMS
IKZF1, sequence (Q96SW2 whole entry): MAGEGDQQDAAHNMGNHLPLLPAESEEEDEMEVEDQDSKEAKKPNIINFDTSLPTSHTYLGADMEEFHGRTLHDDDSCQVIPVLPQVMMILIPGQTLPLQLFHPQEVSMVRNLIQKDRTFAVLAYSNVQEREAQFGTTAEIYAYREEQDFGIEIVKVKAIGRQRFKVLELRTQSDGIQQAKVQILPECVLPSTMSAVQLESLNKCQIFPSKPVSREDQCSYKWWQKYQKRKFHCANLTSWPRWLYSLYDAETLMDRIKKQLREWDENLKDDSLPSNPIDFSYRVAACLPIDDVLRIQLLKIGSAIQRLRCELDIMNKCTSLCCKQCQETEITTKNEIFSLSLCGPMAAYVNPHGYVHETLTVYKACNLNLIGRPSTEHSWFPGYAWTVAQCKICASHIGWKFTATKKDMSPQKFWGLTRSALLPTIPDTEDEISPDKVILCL
IKZF1, sequence (Q16531 whole entry partner): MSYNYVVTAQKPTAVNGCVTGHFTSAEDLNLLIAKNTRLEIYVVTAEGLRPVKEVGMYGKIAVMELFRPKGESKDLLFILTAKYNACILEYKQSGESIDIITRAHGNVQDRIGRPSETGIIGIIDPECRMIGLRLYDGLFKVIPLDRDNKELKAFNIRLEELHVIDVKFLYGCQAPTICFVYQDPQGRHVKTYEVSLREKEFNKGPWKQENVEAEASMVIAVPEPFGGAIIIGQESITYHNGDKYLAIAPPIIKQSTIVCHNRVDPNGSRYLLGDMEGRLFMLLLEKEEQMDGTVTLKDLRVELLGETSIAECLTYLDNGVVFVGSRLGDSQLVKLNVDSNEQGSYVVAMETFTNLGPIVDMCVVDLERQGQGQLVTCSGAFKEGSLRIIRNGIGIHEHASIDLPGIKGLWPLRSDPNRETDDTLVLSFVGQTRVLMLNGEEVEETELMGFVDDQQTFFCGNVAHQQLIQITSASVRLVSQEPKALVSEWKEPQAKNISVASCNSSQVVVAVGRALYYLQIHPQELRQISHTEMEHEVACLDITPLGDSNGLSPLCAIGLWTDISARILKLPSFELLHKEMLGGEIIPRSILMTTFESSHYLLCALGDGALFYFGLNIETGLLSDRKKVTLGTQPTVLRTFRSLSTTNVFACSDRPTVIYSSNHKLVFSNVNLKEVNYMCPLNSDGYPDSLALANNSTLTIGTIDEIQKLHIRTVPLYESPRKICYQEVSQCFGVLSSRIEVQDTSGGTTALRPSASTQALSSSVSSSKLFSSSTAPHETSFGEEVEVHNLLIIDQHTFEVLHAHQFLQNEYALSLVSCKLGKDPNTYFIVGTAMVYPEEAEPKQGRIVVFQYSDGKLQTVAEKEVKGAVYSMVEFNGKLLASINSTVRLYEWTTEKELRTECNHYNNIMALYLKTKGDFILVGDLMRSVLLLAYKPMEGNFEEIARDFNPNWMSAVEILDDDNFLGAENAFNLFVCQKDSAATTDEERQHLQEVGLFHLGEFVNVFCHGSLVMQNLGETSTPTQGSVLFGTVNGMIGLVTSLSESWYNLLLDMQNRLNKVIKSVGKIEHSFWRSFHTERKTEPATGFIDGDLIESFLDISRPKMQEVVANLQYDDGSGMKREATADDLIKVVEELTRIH

GSPT1 = GSPT1 (Homo sapiens, UniProt P15170+Q96SW2); test: Prolabel quantification of GSPT1 protein levels in 293GT cells; conditions: Prolabel assay, read-out: GSPT1 EC50
GSPT1, sequence (P15170 whole entry, the tested form may be a part): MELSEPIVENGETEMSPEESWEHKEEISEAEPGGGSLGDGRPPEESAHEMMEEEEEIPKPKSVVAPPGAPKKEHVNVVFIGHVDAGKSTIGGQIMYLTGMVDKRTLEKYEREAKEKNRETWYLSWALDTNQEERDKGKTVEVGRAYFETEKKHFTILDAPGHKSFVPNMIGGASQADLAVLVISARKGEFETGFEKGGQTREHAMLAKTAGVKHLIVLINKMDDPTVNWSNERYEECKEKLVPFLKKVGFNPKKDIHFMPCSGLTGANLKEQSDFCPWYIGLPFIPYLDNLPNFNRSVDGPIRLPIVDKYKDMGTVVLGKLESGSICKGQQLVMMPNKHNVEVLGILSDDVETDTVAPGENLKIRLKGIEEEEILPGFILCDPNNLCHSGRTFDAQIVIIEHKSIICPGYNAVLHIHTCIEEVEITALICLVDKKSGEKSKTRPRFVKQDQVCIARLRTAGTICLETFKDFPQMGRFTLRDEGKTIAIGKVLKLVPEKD
GSPT1, sequence (Q96SW2 whole entry, the tested form may be a part): as the sequence (Q96SW2 whole entry) above
GSPT1, sequence (Q16531 whole entry partner, the tested form may be a part): as the sequence (Q16531 whole entry partner) above
Method: The Prolabel system from DiscoverX was used to develop high-throughput and quantitative assays to measure changes in IKZF1, IKZF2 and GSPT1 protein levels in response to compounds. The prolabel tag was derived from the alpha fragment of beta galactosidase and has the following protein sequence: mssnslavvlqrrdwenpgvtqlnrlaahppfaswrnseeartdrpsqqlrslnge. The complementary fragment of beta-galactosidase (from DiscoverX), is added to the prolabel tag to form an active beta galactosidase enzyme whose activity can be precisely measured. In this way, the levels of a fusion protein with the prolabel tag can be quantified in cell lysates.
Lentiviral vectors, based on the Invitrogen pLenti6.2/V5 DEST backbone, were constructed that placed the prolabel tag upstream of IKZF1, IKZF2 or GSPT1 and expressed the fusion protein from a CMV promoter.
To ensure moderate and consistent expression of the prolabel fusion proteins across all cells in the population, stable cell lines were constructed from cells expressing a single copy of the construct. Lentivirus packaged with the constructs was made using the Virapower kit from Invitrogen.
The levels of prolabel tagged fusion proteins in compound treated cell lines were measured as follows:
Day 1, Cells were diluted to 1.0×10^6 cells/ml in normal growth medium. 17.5 μL of cells were plated in each well of a solid white 384 well plate. Plates were incubated overnight in a 37° C. tissue culture incubator.
Day 2, Serial dilutions of compounds were made in 384 well plates from 10 mM stocks. 15 μL of DMSO was added to each well of a 384 well plate. In the first column 15 μL of stock compound was added. The solution was mixed and 15 μL was transferred to the next column. This was repeated until 20 two-fold dilutions were prepared. 2.5 μL of diluted compounds were transferred into 60 μL of cell culture medium in another 384 well plate, and mixed well. 2.5 μL of this mixture was added to the plated cells. The final DMSO concentration was 0.5% and the highest concentration of compound was 50 μM. Plates were incubated overnight (e.g., about 14 h, 18 h, or 24 h) in a 37° C. tissue culture incubator.
Day 3, Plates were removed from the incubator and allowed to equilibrate at rt for 30 minutes. Prolabel substrate (DiscoverX PathHunter Prolabel Detection Kit, User manual: 93-0180) was added as described by the manufacturers protocols. Plates were incubated at rt for three hours and luminescence was read using an Envision reader (Perkin Elmer) Data was analyzed and visualized using the Spotfire software package.

IKZF2, sequence (Q9UKS7 whole entry): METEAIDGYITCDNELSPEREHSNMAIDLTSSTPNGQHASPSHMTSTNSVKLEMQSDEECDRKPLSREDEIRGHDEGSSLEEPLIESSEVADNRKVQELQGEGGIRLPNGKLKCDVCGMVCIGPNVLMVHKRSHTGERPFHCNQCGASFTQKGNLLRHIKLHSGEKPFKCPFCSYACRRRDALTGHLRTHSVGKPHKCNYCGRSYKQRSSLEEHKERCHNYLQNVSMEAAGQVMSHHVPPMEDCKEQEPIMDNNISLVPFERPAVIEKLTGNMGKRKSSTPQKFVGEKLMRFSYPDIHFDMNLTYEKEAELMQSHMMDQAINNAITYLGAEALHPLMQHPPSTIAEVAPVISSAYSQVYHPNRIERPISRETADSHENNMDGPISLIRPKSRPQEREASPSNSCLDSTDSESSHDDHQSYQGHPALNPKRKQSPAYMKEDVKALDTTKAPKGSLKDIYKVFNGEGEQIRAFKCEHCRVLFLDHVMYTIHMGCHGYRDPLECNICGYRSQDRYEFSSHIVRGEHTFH
IKZF2, sequence (Q96SW2 whole entry): as the sequence (Q96SW2 whole entry) above
IKZF2, sequence (Q16531 whole entry partner): as the sequence (Q16531 whole entry partner) above

Compound | inhibition at 10 µM (IKZF2) [%] | DC50 (IKZF2) [nM] | DC50 (IKZF1) [nM] | DC50 (GSPT1) [nM] | IKZF2 protein levels as compared to the control (DMSO) (IKZF2)
O=C1CCC(N2Cc3cc(C4CCN(Cc5ccc(C6CCCC6)cc5)CC4)ccc3C2=O)C(=O)N1 (stereo not drawn) [Compound I-110, 3-(5-(1-(4-cyclopentylbenzyl)piperidin-4-yl)-1-oxoisoindolin-2-yl)piperidine-2,6-dione] | 75 | 74 | > 30000 | > 30000 | 
O=C1CCC(N2Cc3cc(C4CCN(Cc5ccc(F)cc5)CC4)ccc3C2=O)C(=O)N1 (stereo not drawn) [Compound I-112, 3-(5-(1-(4-fluorobenzyl)piperidin-4-yl)-1-oxoisoindolin-2-yl)piperidine-2,6-dione] | 63 | 7 | > 50000 | > 50000 | 
O=C1CCC(N2Cc3cc(C4CCN(Cc5ccc(Cl)cc5Cl)CC4)ccc3C2=O)C(=O)N1 (stereo not drawn) [Compound I-113, 3-(5-(1-(2,4-dichlorobenzyl)piperidin-4-yl)-1-oxoisoindolin-2-yl)piperidine-2,6-dione] | 50 | 15 | > 30000 | > 30000 | 
O=C1CCC(N2Cc3cc(C4CCN(Cc5cc[nH]n5)CC4)ccc3C2=O)C(=O)N1 (stereo not drawn) [Compound I-118, 3-(5-(1-((1H-pyrazol-3-yl)methyl)piperidin-4-yl)-1-oxoisoindolin-2-yl)piperidine-2,6-dione] | 55 | 65 | > 50000 | > 50000 | 
Cc1nc2sccn2c1CN1CCC(c2ccc3c(c2)CN(C2CCC(=O)NC2=O)C3=O)CC1 (stereo not drawn) [Compound I-125, 3-(5-(1-((6-methylimidazo[2,1-b]thiazol-5-yl)methyl)piperidin-4-yl)-1-oxoisoindolin-2-yl)piperidine-2,6-dione] | 60 | 240 | > 30000 | > 30000 | 
O=C1CCC(N2Cc3cc(C4CCN(Cc5cccn6nccc56)CC4)ccc3C2=O)C(=O)N1 (stereo not drawn) [Compound I-128, 3-(1-oxo-5-(1-(pyrazolo[1,5-a]pyridin-4-ylmethyl)piperidin-4-yl)isoindolin-2-yl)piperidine-2,6-dione] | 75 | 12 | > 30000 | > 30000 | 
O=C1CCC(N2Cc3cc(C4CCN(Cc5cc6ccccc6[nH]5)CC4)ccc3C2=O)C(=O)N1 (stereo not drawn) [Compound I-136, 3-(5-(1-((1H-indo1-2-yl)methyl)piperidin-4-yl)-1-oxoisoindolin-2-yl)piperidine-2,6-dione] | 80 | 12 | > 30000 | > 30000 | decreased
O=C1CCC(N2Cc3cc(C4CCN(Cc5cnc(N6CCOCC6)nc5)CC4)ccc3C2=O)C(=O)N1 (stereo not drawn) [Compound I-147, 3-(5-(1-((2-morpholinopyrimidin-5-yl)methyl)piperidin-4-yl)-1-oxoisoindolin-2-yl)piperidine-2,6-dione] | 75 | 25 | > 30000 | > 30000 | decreased
O=C1CCC(N2Cc3cc(C4CCN(Cc5nc(-c6ccccc6)c[nH]5)CC4)ccc3C2=O)C(=O)N1 (stereo not drawn) [Compound I-154, 3-(1-oxo-5-(1-((4-phenyl-1H-imidazol-2-yl)methyl)piperidin-4-yl)isoindolin-2-yl)piperidine-2,6-dione] | 85 | 8 | 43 | > 30000 | 
O=C1CCC(N2Cc3cc(C4CCN(Cc5cc(F)c(O)c(F)c5)CC4)ccc3C2=O)C(=O)N1 (stereo not drawn) [Compound I-156, 3-(5-(1-(3,5-difluoro-4-hydroxybenzyl)piperidin-4-yl)-1-oxoisoindolin-2-yl)piperidine-2,6-dione] | 70 | 22 | > 50000 | > 50000 | 

Continued, values first:

inhibition at 10 µM (IKZF2) [%] | DC50 (IKZF2) [nM] | DC50 (IKZF1) [nM] | DC50 (GSPT1) [nM] | IKZF2 protein levels as compared to the control (DMSO) (IKZF2) | Compound
65 | 23 | > 30000 | > 30000 |  | CC(C)Oc1cccc(CN2CCC(c3ccc4c(c3)CN(C3CCC(=O)NC3=O)C4=O)CC2)c1 (stereo not drawn) [Compound I-108, 3-(5-(1-(3-isopropoxybenzyl)piperidin-4-yl)-1-oxoisoindolin-2-yl)piperidine-2,6-dione]
80 | 8 | > 30000 | > 30000 |  | O=C1CCC(N2Cc3cc(C4CCN(Cc5ccc6scnc6c5)CC4)ccc3C2=O)C(=O)N1 (stereo not drawn) [Compound I-130, 3-(5-(1-(benzo[d]thiazol-5-ylmethyl)piperidin-4-yl)-1-oxoisoindolin-2-yl)piperidine-2,6-dione]
80 | 34 | > 30000 | > 30000 |  | O=C1CCC(N2Cc3cc(C4CCN(Cc5cn(C6CCC6)nn5)CC4)ccc3C2=O)C(=O)N1 (stereo not drawn) [Compound I-134, 3-(5-(1-((1-cyclobutyl-1H-1,2,3-triazol-4-yl)methyl)piperidin-4-yl)-1-oxoisoindolin-2-yl)piperidine-2,6-dione]
60 | 57 | > 30000 | > 30000 |  | O=C1CCC(N2Cc3cc(C4CCN(Cc5cc6n(n5)CCCC6)CC4)ccc3C2=O)C(=O)N1 (stereo not drawn) [Compound I-135, 3-(1-oxo-5-(1-((4,5,6,7-tetrahydropyrazolo[1,5-a]pyridin-2-yl)methyl)piperidin-4-yl)isoindolin-2-yl)piperidine-2,6-dione]
80 | 9 | > 30000 | > 30000 |  | O=C1CCC(N2Cc3cc(C4CCN(Cc5ccc6cn[nH]c6c5)CC4)ccc3C2=O)C(=O)N1 (stereo not drawn) [Compound I-137, 3-(5-(1-((1H-indazol-6-yl)methyl)piperidin-4-yl)-1-oxoisoindolin-2-yl)piperidine-2,6-dione]
70 | 81 | > 30000 | > 30000 |  | NC(=O)c1cccc(CN2CCC(c3ccc4c(c3)CN(C3CCC(=O)NC3=O)C4=O)CC2)c1 (stereo not drawn) [Compound I-139, 3-((4-(2-(2,6-dioxopiperidin-3-yl)-1-oxoisoindolin-5-yl)piperidin-1-yl)methyl)benzamide]
75 | 16 | > 30000 | > 30000 |  | O=C1CCC(N2Cc3cc(C4CCN(Cc5cnc(N6CCCC6)nc5)CC4)ccc3C2=O)C(=O)N1 (stereo not drawn) [Compound I-142, 3-(1-oxo-5-(1-((2-(pyrrolidin-1-yl)pyrimidin-5-yl)methyl)piperidin-4-yl)isoindolin-2-yl)piperidine-2,6-dione]
60 | 26 | > 30000 | > 30000 |  | CC(C)(C)c1nc(CN2CCC(c3ccc4c(c3)CN(C3CCC(=O)NC3=O)C4=O)CC2)cs1 (stereo not drawn) [Compound I-143, 3-(5-(1-((2-(tert-butyl)thiazol-4-yl)methyl)piperidin-4-yl)-1-oxoisoindolin-2-yl)piperidine-2,6-dione]
80 | 16 | > 30000 | > 30000 |  | Cc1ccc2c(CN3CCC(c4ccc5c(c4)CN(C4CCC(=O)NC4=O)C5=O)CC3)c[nH]c2c1 (stereo not drawn) [Compound I-149, 3-(5-(1-((6-methyl-1H-indol-3-yl)methyl)piperidin-4-yl)-1-oxoisoindolin-2-yl)piperidine-2,6-dione]
40 |  | > 50000 | > 50000 |  | O=C1CCC(N2Cc3cc(C4CCNCC4)ccc3C2=O)C(=O)N1 (stereo not drawn) [Compound I-155, 3-(1-oxo-5-(piperidin-4-yl)isoindolin-2-yl)piperidine-2,6-dione]

From patent US11053218B2, “3-(1-oxoisoindolin-2-yl)piperidine-2,6-dione derivatives and uses thereof” (Novartis AG, priority 2017, dated 2021)
